Test results as given in paper PMC3187749, “Discovery of Diverse Small Molecule Chemotypes with Cell-Based PKD1 Inhibitory Activity” (PLoS ONE, 2011).
Read-outs that look alike come from different tables or passages of the source.

Legend:
recombinant human PKD1 [1] = biological target: T1, recombinant human PKD1 (Homo sapiens, UniProt Q15139); conditions: cited from earlier work
T1 construct: His; purchased Millipore (Billerica, MA)
T1 sequence (Q15139 1-912): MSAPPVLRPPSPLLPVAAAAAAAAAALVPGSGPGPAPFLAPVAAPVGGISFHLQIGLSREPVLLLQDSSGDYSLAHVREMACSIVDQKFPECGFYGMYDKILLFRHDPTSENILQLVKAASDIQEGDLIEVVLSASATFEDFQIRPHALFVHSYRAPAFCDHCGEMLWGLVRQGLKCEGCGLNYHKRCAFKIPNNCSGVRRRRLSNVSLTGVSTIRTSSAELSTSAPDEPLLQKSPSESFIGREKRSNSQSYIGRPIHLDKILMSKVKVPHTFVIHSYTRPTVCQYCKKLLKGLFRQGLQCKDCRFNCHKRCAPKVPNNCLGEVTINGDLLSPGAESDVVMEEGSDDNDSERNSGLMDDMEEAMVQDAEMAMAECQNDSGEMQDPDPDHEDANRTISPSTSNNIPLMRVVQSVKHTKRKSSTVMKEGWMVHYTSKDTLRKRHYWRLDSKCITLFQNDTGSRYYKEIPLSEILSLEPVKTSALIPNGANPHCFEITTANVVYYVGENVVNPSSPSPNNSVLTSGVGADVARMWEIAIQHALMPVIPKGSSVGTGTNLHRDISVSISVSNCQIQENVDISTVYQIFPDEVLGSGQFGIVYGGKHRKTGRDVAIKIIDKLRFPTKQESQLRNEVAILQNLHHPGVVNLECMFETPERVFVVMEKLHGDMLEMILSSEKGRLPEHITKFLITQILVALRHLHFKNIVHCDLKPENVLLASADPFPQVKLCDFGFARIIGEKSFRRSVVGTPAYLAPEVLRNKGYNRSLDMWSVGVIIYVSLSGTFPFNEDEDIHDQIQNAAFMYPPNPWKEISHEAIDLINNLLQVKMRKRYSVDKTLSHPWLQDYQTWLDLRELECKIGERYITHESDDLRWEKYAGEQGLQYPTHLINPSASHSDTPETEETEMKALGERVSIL

recombinant human PKD1 [2] = biological target: T1, recombinant human PKD1; experiment: In vitro radiometric PKD1 kinase assay; type: biochemical
Protocol: Kinase reactions were initiated with the addition of ATP (50 µM ATP, 1.0 µCi γ-^33P-ATP; Perkin Elmer, Boston, MA) and incubated for 20 min at 30°C. Twenty-five µL of the reaction was spotted onto Whatman P81 filter paper (Whatman Inc., Clifton, NJ). Filter papers were then washed three times in 0.5% phosphoric acid, air-dried, and counted using an LS6500 multi-purpose scintillation counter (Beckman Coulter, Fullerton, CA). IC50 determinations were performed using GraphPad Prism software 5.0. Radiometric PKD2 and PKD3 in vitro kinase assays were performed as previously described.

[3] = biological target: T2, endogenous PKD1 (Ser916 phosphorylation) in LNCaP prostate cancer cells (Homo sapiens, UniProt Q15139); experiment: Western blot of PMA-induced phospho-Ser916-PKD1 in LNCaP cells; type: cell-based; conditions: LNCaP cells; for inhibition at 50 µM: read-out: Inhibition of phosphorylation of Ser916-PKD1; for Concentration dependence of inhibition of PMA-induced endogenous PKD1 activity: Western blot
T2 construct: phosphorylation of endogenously expressed PKD1 Ser^916; endogenous in cells; host or cells: LNCaP prostate cancer cells
T2 sequence (Q15139 1-912): T1 sequence (Q15139 1-912)
Protocol: Briefly, prostate cancer cells (LNCaP) were exposed to test compounds. Cells were lysed in buffer (200 mM Tris-HCl, pH 7.4, 100 µM 4-(2-aminoethyl) benzenesulfonyl fluoride, 1 mM EGTA, and 1% Triton X-100) and cell lysates were subjected to SDS-PAGE then electrotransferred to nitrocellulose membranes. Membranes were blocked with 5% nonfat milk in Tris-buffered saline. Membranes were probed with a primary antibody then followed by a secondary anti-mouse or anti-rabbit secondary antibody conjugated to horseradish peroxidase (1∶1000, Bio-Rad). Bands were visualized by the enhanced chemiluminescence Western blotting detection system (Amersham Biosciences). The primary antibodies included p-S916-PKD1 antibody (Millipore) and GAPDH (Enzo Life Sciences, Plymouth Meeting, PA).
[…] Whole cell lysates were immunoblotted for phosphorylated Ser^916-PKD1 with GAPDH serving as a loading control.

recombinant human PKD1 [4] = biological target: T1, recombinant human PKD1; experiment: ATP competition studies (radiometric PKD1 assay, Michaelis-Menten/Lineweaver-Burk); type: biochemical; conditions: PKD1, ATP 12.5–1000 µM
Protocol: For ATP competition studies, recombinant human PKD1 (1 ng/µL) and Syntide-2 substrate peptide (200 ng/µl) in kinase buffer were incubated with a concentration range of test compound. Kinase reactions were initiated with a concentration range of cold ATP (12.5–1000 µM) supplemented with 1.0 µCi γ-^33P-ATP (Perkin Elmer) and processed as described above. Enzyme inhibition was analyzed and visualized using the Michaelis-Menten and Lineweaver-Burk functions of GraphPad Prism 5.0.

[5] = test system: T3, recombinant human protein kinase D1 (PKD1); experiment: IMAP-based PKD1 FP high throughput screening assay; type: biochemical; conditions: LOPAC screen, 10 µM, duplicate
T3 construct: His; purchased Millipore (Billerica, MA)
Protocol: An HTS IMAP-based PKD1 FP assay was developed and used to screen the PMLSC library to identify primary active compounds as previously described, [19]. In brief, the basis for the in vitro homogeneous IMAP PKD1 FP assay is the interaction of nanoparticles with covalent phosphorylated moieties generated when active PKD1 enzyme phosphorylates small, fluorescently labeled substrate peptides. The PKD1 kinase reactions were assembled stepwise by the addition of 3× substrate/ATP (300 nM/60 µM), compound and PKD1 enzyme (0.18 units/mL). Positive (MAX) and negative (MIN) control kinase reactions contained DMSO (1%) and Gö6976 (1 µM) or H-89 (100 µM) in 1% DMSO (final concentrations), respectively. All assay plates were setup in a standard 384-well configuration as previously described and all reagents were prepared in kinase reaction buffer. Kinase reactions were incubated for 90 min at room temperature and then were stopped with the addition of 18 µL of IMAP binding reagents (1∶400) in 1× binding buffer A (proprietary composition, Molecular Devices). These nanoparticles associate with substrate peptide phospho groups creating a larger phosphosubstrate–nanoparticle complex. The phosphosubstrate–nanoparticle binding can be quantified and is expressed as millipolarization (mP) units. […] Assay plates were centrifuged at 50 g for 1 min, incubated at room temperature for 2 hr and FP data were collected on a Molecular Devices SpectraMax M5 (excitation A485/emission A525). This assay was also used in secondary concentration response studies to initially determine IC50 concentrations of compounds. IC50 determinations were performed using GraphPad Prism software 5.0 (La Jolla, CA).
A PKD1 IMAP FP assay was developed and optimized to identify small molecule inhibitors of PKD1 kinase activity. Using this assay system, we screened the LOPAC and PMLSC compound sets (196,425 total compounds) for novel PKD inhibitory chemotypes. […] For the LOPAC screen each compound was evaluated in duplicate at a single concentration (10 µM). […]

CDK7 = experiment: IMAP-based CDK7 counter screen; type: biochemical; conditions: concentrations up to 50 µM
Excerpt: (§1) It was also gratifying that, in general, our novel cell active PKD1 inhibitors appeared to be less promiscuous than PKD1 inhibitors having minimal to no cellular PKD1 inhibitory activity (Table 1). For example, CIDs 755673 and 1893668 display additional confirmed activity in six and seven, respectively, PubChem bioassays while CID 2011756 has confirmed activity in only one additional PubChem bioassay. […] In contrast, the remaining chemotypes registered as confirmed actives in 2–43 additional bioassays (Table 1). Additional chemical similarity searching, focusing on our four novel cell-active PKD1 inhibitory chemotypes, using MetaDrug also supports a comparative lack of promiscuity of these compounds.

PLK1 = experiment: IMAP-based PLK1 counter screen; type: biochemical; conditions: concentrations up to 50 µM
Excerpt: as §1

AKT = experiment: IMAP-based AKT counter screen; type: biochemical; conditions: concentrations up to 50 µM
Excerpt: as §1

[6] = radiometric PKD1 kinase assay, mean ± range or SD of 2–4 independent experiments, read-out: In vitro PKD1 IC50
[7] = 50 µM compound 45 min, then PMA 10 nM 20 min

Compound	IC50 (recombinant human PKD1 [2]; [6]) [µM]	Inhibition of phosphorylation of Ser916-PKD1 (in words) [3, 7]	Mechanism of Action (with respect to ATP) (recombinant human PKD1 [4])	further results
NC(=O)c1cc(-c2ccnc(NC3CCCCC3)c2)nc(N2CCNCC2)c1 [BKPDi]				Mechanism of Action (with respect to ATP) (recombinant human PKD1 [1]; known mechanism of action of the PKD inhibitor BKPDi, listed as BPKDi): ATP competitive
NC(N)=NC(=O)c1nc(Cl)c(N)nc1N [CID 16230, amiloride chloride, reference compound]	2.1 ± 0.15	little or no inhibition		inhibition at 50 µM [3, 7]: < 50%
CC1(C)Oc2ccc3ccc(=O)oc3c2-c2cn[nH]c21 [CID 646236]	1.1 ± 0.1		ATP competitive	
O=C1c2ccccc2-c2onc3ccc(NCCCn4ccnc4)c1c23 [CID 663844]	4.8 ± 0.6	little or no inhibition		
O=C1NCCCc2c1oc1ccc(O)cc21 [CID 755673]		confirmed as a cell active PKD1 inhibitor		Concentration dependence of inhibition of PMA-induced endogenous PKD1 activity [3]: concentration-dependent inhibition; Mechanism of Action (with respect to ATP) (recombinant human PKD1 [1]; previously determined): Non-ATP competitive
CCN1/C(=C/C(C)=O)Sc2ccc(OC)cc21 [CID 1893668, (1Z)-1-(3-ethyl-5-methoxy-1,3-benzothiazol-2-ylidene)propan-2-one, reference compound]	1.7 ± 0.3			inhibition at 50 µM [3, 7]: > 50%; EC50 ([3]; PMA stimulation, n = 3, read-out: Cellular EC50 (phospho-Ser916-PKD1)): 52 ± 14 µM; Concentration dependence of inhibition of PMA-induced endogenous PKD1 activity [3]: concentration-dependent inhibition
CCC1=NNc2cccc3c(OC)ccc1c23 [CID 2876479]	2.2 ± 1.8	some cellular inhibition	ATP competitive	
CC1Cc2ccccc2N1c1ncnc(N)c1[N+](=O)[O-] (stereo not shown) [CID 2958734]	6.1 ± 0.2	little or no inhibition	ATP competitive	
Clc1cncc(Cl)c1NNc1ccncc1 [CID 4438738]	3.3 ± 0.1		ATP competitive	
Nc1nc2ccc([N+](=O)[O-])c(N)c2s1 [CID 5086667]		some cellular inhibition	ATP-competitive inhibitor	Mechanism of Action (with respect to ATP) (recombinant human PKD1 [4]; listed as 5086667): ATP competitive
NC(=O)c1cn([C@@H]2O[C@H](CO)[C@@H](O)[C@H]2O)c2ncnc(N)c12 [CID 9549170, sangivamycin, reference compound]			ATP competitive	IC50 (recombinant human PKD1 [2]): 0.4 ± 0.3 µM
CC1CNCCN1S(=O)(=O)c1cccc2cnccc12 (stereo not shown) [H7]				Inhibition of control signal (primary active) [5]: ≥ 50%
CNCCNS(=O)(=O)c1cccc2cnccc12 [H8]				Inhibition of control signal (primary active) [5]: ≥ 50%
O=S(=O)(NCCNC/C=C/c1ccc(Br)cc1)c1cccc2cnccc12 [H89]				Inhibition of control signal (primary active) [5]: ≥ 50%
(6Z)-6-[4-(3-aminopropylamino)-6-methyl-1H-pyrimidin-2-ylidene]cyclohexa-2,4-dien-1-one [CID 5389142]			ATP competitive	CDK7 kinase inhibition (CDK7): no kinase inhibition; PLK1 kinase inhibition (PLK1): no kinase inhibition; AKT kinase inhibition (AKT): no kinase inhibition; Inhibition of phosphorylation of Ser916-PKD1 [3, 7]: greater than 50%; Concentration dependence of inhibition of PMA-induced endogenous PKD1 activity [3]: concentration-dependent inhibition
